Laboratory results taken from ChEMBL document CHEMBL1151085, “Design, synthesis and SAR of RGD peptide hybrids as highly efficient inhibitors of platelet aggregation” (Bioorg Med Chem Lett, 1995).

Species on record: Homo sapiens
Test: In vitro for its inhibitory activity against platelet aggregation induced by ADP
Format: functional

| Compound | IC50 |
| --- | --- |
| N=C(N)Nc1ccc(C(=O)NCCC(=O)N[C@@H](CC(=O)O)C(=O)N[C@H](Cc2c[nH]c3ccccc23)C(=O)O)cc1 | 0.07 µM |
| N=C(N)NCc1ccc(C(=O)NCCC(=O)N[C@@H](CC(=O)O)C(=O)N[C@H](Cc2c[nH]c3ccccc23)C(=O)O)cc1 | 0.71 µM |
| N=C(N)Nc1ccc(C(=O)NCCC(=O)N[C@@H](CC(=O)O)C(=O)N[C@@H](C(=O)O)c2ccccc2)cc1 | 2.9 µM |
| N=C(N)Nc1ccc(C(=O)NCCC(=O)N[C@@H](CC(=O)O)C(=O)N[C@H](Cc2ccccc2)C(=O)O)cc1 | 0.39 µM |
| N=C(N)Nc1ccc(C(=O)NCCC(=O)N[C@@H](CC(=O)O)C(=O)N[C@H](CC2CCCCC2)C(=O)O)cc1 | 0.088 µM |
| N=C(N)Nc1ccc(C(=O)NCCC(=O)N[C@@H](CC(=O)O)C(=O)N[C@@H](Cc2ccccc2)C(=O)O)cc1 | 6.1 µM |
| N=C(N)Nc1ccc(C(=O)NCCCC(=O)N[C@@H](CC(=O)O)C(=O)N[C@H](Cc2c[nH]c3ccccc23)C(=O)O)cc1 | > 50 µM |
| N=C(N)Nc1ccc(C(=O)NCCC(=O)N[C@@H](CC(=O)O)C(=O)N[C@H](Cc2cccc3ccccc23)C(=O)O)cc1 | 0.77 µM |
| N=C(N)c1ccc(C(=O)NCCC(=O)N[C@@H](CC(=O)O)C(=O)NC(Cc2ccc(F)cc2)C(=O)O)cc1 (single isomer, unassigned) | 0.047 µM |
| N=C(N)c1ccc(C(=O)NCCC(=O)N[C@@H](CC(=O)O)C(=O)N[C@H](Cc2c[nH]c3ccccc23)C(=O)O)cc1 (single isomer, unassigned) | 0.026 µM |
| N=C(N)c1ccc(C(=O)NCCC(=O)N[C@@H](CC(=O)O)C(=O)NC(Cc2ccc(O)cc2)C(=O)O)cc1 (single isomer, unassigned) | 0.02 µM |

Second part, the compound after the results:

| IC50 | Compound |
| --- | --- |
| 0.044 µM | N=C(N)c1ccc(C(=O)NCCC(=O)N[C@@H](CC(=O)O)C(=O)N[C@H](Cc2ccc3ccccc3c2)C(=O)O)cc1 |
| > 50 µM | N=C(N)Nc1ccc(C(=O)NC(Cc2ccc(O)cc2)C(=O)N[C@@H](CC(=O)O)C(=O)N[C@H](Cc2c[nH]c3ccccc23)C(=O)O)cc1 (some centres undefined) |
| > 50 µM | N=C(N)c1ccc(C(=O)NCCCC(=O)N[C@@H](CC(=O)O)C(=O)N[C@H](Cc2c[nH]c3ccccc23)C(=O)O)cc1 |
| 0.32 µM | N=C(N)Nc1ccc(C(=O)NCCC(=O)N[C@@H](CC(=O)O)C(=O)N[C@H](Cc2ccc3ccccc3c2)C(=O)O)cc1 |
| 0.19 µM | N=C(N)Nc1ccc(C(=O)NCCC(=O)N[C@@H](CC(=O)O)C(=O)N[C@H](Cc2ccc(O)cc2)C(=O)O)cc1 |
| 1.2 µM | N=C(N)c1ccc(C(=O)NCCC(=O)N[C@@H](CC(=O)O)C(=O)N[C@@H](Cc2ccc(O)cc2)C(=O)O)cc1 |
| 1.7 µM | N=C(N)Nc1ccc(C(=O)NCCC(=O)N[C@@H](CC(=O)O)C(=O)N[C@H](Cc2ccc(F)cc2)C(=O)O)cc1 |
| 0.6 µM | N=C(N)Nc1ccc(C(=O)NCC(=O)N[C@@H](CC(=O)O)C(=O)N[C@H](Cc2c[nH]c3ccccc23)C(=O)O)cc1 |
| 4.6 µM | N=C(N)Nc1ccc(C(=O)N2CCC(C(=O)N[C@@H](CC(=O)O)C(=O)N[C@H](Cc3c[nH]c4ccccc34)C(=O)O)CC2)cc1 |

Biological target: not listed separately
Test: Displacement of [3H]SKF-107260 from […] integrin
Design: species or system Homo sapiens

| Ki | Compound |
| --- | --- |
| 35 µM | N=C(N)c1ccc(C(=O)NCCC(=O)N[C@@H](CC(=O)O)C(=O)N[C@H](Cc2c[nH]c3ccccc23)C(=O)O)cc1 (single isomer, unassigned) |
| 75 µM | N=C(N)c1ccc(C(=O)NCCC(=O)N[C@@H](CC(=O)O)C(=O)NC(Cc2ccc(O)cc2)C(=O)O)cc1 (single isomer, unassigned) |

Biological target: Integrin alpha-IIb/beta-3 (Homo sapiens, UniProt P05106+P08514)
Test: Displacement of [3H]SKF-107260 from alpha IIb beta3 integrin
Format: protein-complex assay

Sequence of Integrin alpha-IIb/beta-3 (P05106 27-788 limits assumed): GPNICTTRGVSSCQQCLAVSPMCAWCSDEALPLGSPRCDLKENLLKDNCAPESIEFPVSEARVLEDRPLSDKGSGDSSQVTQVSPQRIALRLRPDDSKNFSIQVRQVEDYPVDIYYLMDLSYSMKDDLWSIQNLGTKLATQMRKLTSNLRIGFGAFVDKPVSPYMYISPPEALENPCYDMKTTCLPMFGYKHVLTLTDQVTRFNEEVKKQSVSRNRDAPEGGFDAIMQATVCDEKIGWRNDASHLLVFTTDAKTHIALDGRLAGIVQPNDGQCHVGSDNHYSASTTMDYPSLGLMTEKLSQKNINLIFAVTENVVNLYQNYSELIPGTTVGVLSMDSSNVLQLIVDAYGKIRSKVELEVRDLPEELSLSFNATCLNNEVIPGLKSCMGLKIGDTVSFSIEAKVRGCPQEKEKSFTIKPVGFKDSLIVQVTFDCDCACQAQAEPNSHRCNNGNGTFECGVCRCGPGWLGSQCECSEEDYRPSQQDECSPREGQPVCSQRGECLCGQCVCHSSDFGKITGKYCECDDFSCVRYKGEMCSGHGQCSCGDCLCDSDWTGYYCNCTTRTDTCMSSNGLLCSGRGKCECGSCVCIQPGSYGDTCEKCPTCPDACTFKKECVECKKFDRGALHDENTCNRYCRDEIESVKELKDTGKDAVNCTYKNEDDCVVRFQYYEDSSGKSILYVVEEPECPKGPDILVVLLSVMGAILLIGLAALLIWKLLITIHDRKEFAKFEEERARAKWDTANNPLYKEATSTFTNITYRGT
Sequence of Integrin alpha-IIb/beta-3 (P08514 32-887 limits assumed): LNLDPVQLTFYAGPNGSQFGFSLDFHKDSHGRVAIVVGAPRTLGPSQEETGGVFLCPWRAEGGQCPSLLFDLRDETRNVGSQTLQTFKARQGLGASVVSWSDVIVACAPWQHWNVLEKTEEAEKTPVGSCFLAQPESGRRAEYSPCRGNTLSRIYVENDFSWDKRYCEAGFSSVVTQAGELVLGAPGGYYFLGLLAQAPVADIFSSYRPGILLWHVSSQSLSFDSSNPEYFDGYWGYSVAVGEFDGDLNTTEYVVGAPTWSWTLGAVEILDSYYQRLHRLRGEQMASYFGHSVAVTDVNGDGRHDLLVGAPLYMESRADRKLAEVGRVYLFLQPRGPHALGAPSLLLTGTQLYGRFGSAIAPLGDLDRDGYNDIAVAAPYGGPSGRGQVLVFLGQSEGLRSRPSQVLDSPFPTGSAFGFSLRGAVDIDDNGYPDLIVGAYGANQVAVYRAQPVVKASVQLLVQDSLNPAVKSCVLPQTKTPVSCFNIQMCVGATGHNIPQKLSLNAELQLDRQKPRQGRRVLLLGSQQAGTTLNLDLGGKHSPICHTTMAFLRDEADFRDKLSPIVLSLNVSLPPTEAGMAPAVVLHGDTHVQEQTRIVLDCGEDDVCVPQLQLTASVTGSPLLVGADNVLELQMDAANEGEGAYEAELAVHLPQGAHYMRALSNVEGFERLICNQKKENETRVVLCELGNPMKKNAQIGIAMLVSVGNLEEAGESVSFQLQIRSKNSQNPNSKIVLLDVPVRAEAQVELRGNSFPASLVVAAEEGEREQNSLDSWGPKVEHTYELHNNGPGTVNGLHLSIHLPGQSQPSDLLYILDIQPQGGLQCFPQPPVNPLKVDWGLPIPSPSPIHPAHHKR
Sequence of Integrin alpha-IIb/beta-3 (P08514 891-1039 limits assumed): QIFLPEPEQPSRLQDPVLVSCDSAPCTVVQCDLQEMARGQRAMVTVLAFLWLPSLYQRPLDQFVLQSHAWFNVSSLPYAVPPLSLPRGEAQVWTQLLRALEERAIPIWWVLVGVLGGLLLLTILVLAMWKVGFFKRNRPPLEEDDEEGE

| Ki | Compound |
| --- | --- |
| 0.0023 µM | N=C(N)c1ccc(C(=O)NCCC(=O)N[C@@H](CC(=O)O)C(=O)N[C@H](Cc2c[nH]c3ccccc23)C(=O)O)cc1 (single isomer, unassigned) |
| 0.0021 µM | N=C(N)c1ccc(C(=O)NCCC(=O)N[C@@H](CC(=O)O)C(=O)NC(Cc2ccc(O)cc2)C(=O)O)cc1 (single isomer, unassigned) |
